Measured values published in patent US7867980B2, “Lincosamide derivatives and antimicrobial agents comprising the same as active ingredient” (Meiji Seika Kaisha, Ltd., priority 2007, dated 2011).
Values after ≈ are worked out from the molar mass of the structure shown.

Experiments:
Assay in all cases: Antimicrobial activity, minimum growth inhibitory concentration (MIC), agar dilution
Format in all cases: cell-based
S. pneumoniae 1913 = conditions: Sensitivity disk agar-N+5% horse blood, inoculum about 10^6 CFU/ml
Method: (§1) For representative compounds among lincomycin derivatives according to the present invention, the minimum growth inhibitory concentration (MIC, μg/ml) against various pneumococci was measured according to the method described in CHEMOTHERAPY, vol. […] Sensitivity disk agar-N+5% horse blood was used as the medium for the measurement. The amount of bacteria inoculated was about 10^6 CFU/ml.

S. pneumoniae IP692 = conditions: Sensitivity disk agar-N+5% horse blood, inoculum about 10^6 CFU/ml
Method: as §1

S. pneumoniae TH-662 = conditions: inoculum about 10^6 CFU/ml; for minimum growth inhibitory concentration (MIC): Sensitivity disk agar-N+5% horse blood
Method: as §1

S. pneumoniae 1700 = conditions: Sensitivity disk agar-N+5% horse blood, inoculum about 10^6 CFU/ml
Method: as §1

S. pneumoniae PRC-206 = conditions: inoculum about 10^6 CFU/ml; for minimum growth inhibitory concentration (MIC): Sensitivity disk agar-N+5% horse blood
Method: as §1

S. pneumoniae DP1 TypeI = conditions: Sensitivity disk agar-N+5% horse blood, inoculum about 10^6 CFU/ml
Method: as §1

S. pneumoniae PRC-53 = conditions: inoculum about 10^6 CFU/ml; for minimum growth inhibitory concentration (MIC): Sensitivity disk agar-N+5% horse blood
Method: as §1

S. pneumoniae 1820 = conditions: Sensitivity disk agar-N+5% horse blood, inoculum about 10^6 CFU/ml
Method: as §1

S. pneumoniae 225 = conditions: Sensitivity disk agar-N+5% horse blood, inoculum about 10^6 CFU/ml
Method: as §1

Compound | minimum growth inhibitory concentration (MIC) (S. pneumoniae 1913) | minimum growth inhibitory concentration (MIC) (S. pneumoniae IP692) | minimum growth inhibitory concentration (MIC) (S. pneumoniae TH-662) [µg/mL] | minimum growth inhibitory concentration (MIC) (S. pneumoniae 1700) [µg/mL] | minimum growth inhibitory concentration (MIC) (S. pneumoniae PRC-206) [µg/mL] | minimum growth inhibitory concentration (MIC) (S. pneumoniae DP1 TypeI) | minimum growth inhibitory concentration (MIC) (S. pneumoniae PRC-53) | minimum growth inhibitory concentration (MIC) (S. pneumoniae 1820) [µg/mL] | minimum growth inhibitory concentration (MIC) (S. pneumoniae 225) [µg/mL] | MIC (S. pneumoniae 1913; Streptococcus pneumoniae) [µg/mL] | MIC (S. pneumoniae IP692; Streptococcus pneumoniae) [µg/mL] | MIC (S. pneumoniae TH-662; Streptococcus pneumoniae, TH662, Sensitivity disk agar-N+5% horse blood) [µg/mL] | MIC (S. pneumoniae 1700; Streptococcus pneumoniae) [µg/mL] | MIC (S. pneumoniae PRC-206; Streptococcus pneumoniae, PRC206, Sensitivity disk agar-N+5% horse blood) [µg/mL] | MIC (S. pneumoniae DP1 TypeI; Streptococcus pneumoniae, DP1TYPEI) [µg/mL] | MIC (S. pneumoniae PRC-53; Streptococcus pneumoniae, PRC53, Sensitivity disk agar-N+5% horse blood) [µg/mL] | MIC (S. pneumoniae 1820; Streptococcus pneumoniae) [µg/mL] | MIC (S. pneumoniae 225; Streptococcus pneumoniae) [µg/mL]
CCCC1CC(C(=O)NC(C(C)Sc2ccc(-c3nc(C(=O)N(C)C)cs3)cc2)C2OC(SC)C(O)C(O)C2O)N(C)C1 (stereo not drawn) [Compound 17, 7-Deoxy-7-(4-(4-(dimethylcarbamoyl)-thiazol-2-yl)phenylthio)-7-epilincomycin] | 0.03 µg/mL | 0.03 µg/mL | 2 | 2 | 4 | 0.03 µg/mL | 0.015 µg/mL | 4 | 32 | – | – | – | – | – | – | – | – | –
CCC[C@@H]1CCN[C@H](C(=O)N[C@@H]([C@H]2O[C@H](SC)[C@H](O)[C@@H](O)[C@H]2O)[C@H](C)Sc2ccc(-c3cncnc3)cc2)C1 [Compound 59, Methyl 7-deoxy-7-epi-6-N-((2S,4R)-4-propyl)pipecoloyl-7-(4-(pyrimidin-5-yl)phenylthio)-1-thio-α-lincosamide] | 0.015 µg/mL | ≦0.008 μg/ml | 0.13 | 0.13 | 0.25 | ≦0.008 μg/ml | ≦0.008 μg/ml | 0.25 | 1 | – | – | – | – | – | – | – | – | –

More lines, now with the values ahead:

minimum growth inhibitory concentration (MIC) (S. pneumoniae 1913) | minimum growth inhibitory concentration (MIC) (S. pneumoniae IP692) | minimum growth inhibitory concentration (MIC) (S. pneumoniae TH-662) [µg/mL] | minimum growth inhibitory concentration (MIC) (S. pneumoniae 1700) [µg/mL] | minimum growth inhibitory concentration (MIC) (S. pneumoniae PRC-206) [µg/mL] | minimum growth inhibitory concentration (MIC) (S. pneumoniae DP1 TypeI) | minimum growth inhibitory concentration (MIC) (S. pneumoniae PRC-53) | minimum growth inhibitory concentration (MIC) (S. pneumoniae 1820) [µg/mL] | minimum growth inhibitory concentration (MIC) (S. pneumoniae 225) [µg/mL] | MIC (S. pneumoniae 1913; Streptococcus pneumoniae) [µg/mL] | MIC (S. pneumoniae IP692; Streptococcus pneumoniae) [µg/mL] | MIC (S. pneumoniae TH-662; Streptococcus pneumoniae, TH662, Sensitivity disk agar-N+5% horse blood) [µg/mL] | MIC (S. pneumoniae 1700; Streptococcus pneumoniae) [µg/mL] | MIC (S. pneumoniae PRC-206; Streptococcus pneumoniae, PRC206, Sensitivity disk agar-N+5% horse blood) [µg/mL] | MIC (S. pneumoniae DP1 TypeI; Streptococcus pneumoniae, DP1TYPEI) [µg/mL] | MIC (S. pneumoniae PRC-53; Streptococcus pneumoniae, PRC53, Sensitivity disk agar-N+5% horse blood) [µg/mL] | MIC (S. pneumoniae 1820; Streptococcus pneumoniae) [µg/mL] | MIC (S. pneumoniae 225; Streptococcus pneumoniae) [µg/mL] | Compound
≦0.008 μg/ml | 0.03 µg/mL | 0.25 | 2 | 2 | 0.015 µg/mL | ≦0.008 μg/ml | 2 | 8 | – | – | – | – | – | – | – | – | – | CCC[C@@H]1C[C@@H](C(=O)N[C@@H]([C@H]2O[C@H](SC)[C@H](O)[C@@H](O)[C@H]2O)[C@H](C)Sc2ccc(-c3cncnc3)c(F)c2)N(C)C1 [Compound 3, 7-Deoxy-7-epi-7-(3-fluoro-4-(pyrimidin-5-yl)phenylthio)lincomycin]
– | – | – | – | – | – | – | – | – | 0.015 (≈ 0.0254 µM) | 0.015 (≈ 0.0254 µM) | 0.5 (≈ 0.846 µM) | 2 (≈ 3.39 µM) | 2 (≈ 3.39 µM) | 0.015 (≈ 0.0254 µM) | ≤ 0.008 | 2 (≈ 3.39 µM) | 4 (≈ 6.77 µM) | CCC[C@@H]1CCN(C)[C@H](C(=O)N[C@@H](C2OC(SC)C(O)C(O)C2O)[C@H](C)Sc2ccc(-c3cncnc3)cc2)C1 (stereo partly drawn) [Compound 65]
0.13 µg/mL | 0.13 µg/mL | 0.5 | 0.5 | 1 | 0.06 µg/mL | 0.06 µg/mL | 1 | 1 | – | – | – | – | – | – | – | – | – | CS[C@H]1O[C@H]([C@H](NC(=O)[C@@H]2C[C@H](CC3CC3)CCN2)[C@H](C)Sc2ccc(C3C=CCN(C)C3)nc2)[C@H](O)[C@H](O)[C@H]1O (stereo partly drawn) [Compound 93, Methyl 6-N-((2S,4R)-4-cyclopropylmethyl)-pipecoloyl-7-deoxy-7-epi-7-(6-(1-methyl-1,2,3,6-tetrahydropyridin-3-yl)pyridin-3-ylthio)-1-thio-α-lincosamide]
